Results taken from patent US20240174690A1, “ANNULATED 2-AMINO-3-CYANO THIOPHENES AND DERIVATIVES FOR THE TREATMENT OF CANCER” (BOEHRINGER INGELHEIM INTERNATIONAL GMBH, priority 2021, published 2024).
Converted amounts (≈) assume the structure as drawn. Where two headings read alike, the source gives them in different places.

Key:
NCI-H2122 cells = assay: NCI-H2122 CTG proliferation assay (120 h) (NSCLC, G12C); type: cell-based; details: Homo sapiens
Experimental: NCI-H2122 CTG Proliferation Assay (120 h) (NSCLC, G12C)
The CTG assay is designed to measure quantitatively the proliferation of NCI-H2122 cells (ATCC CRL-5985), using the CellTiter Glow Assay Kit (Promega G7571). Cells are grown in RPMI medium (ATCC) supplemented with Fetal Calf Serum (Life Technologies, Gibco BRL, Cat. No. 10270-106). On “day 0” 200 NCI-H2122 cells are seeded in 60 μL RPMI ATCC+10% FCS+Penstrep in a black 384-well plate, flat and clear bottom (Greiner, PNr. 781091). Cells are then incubated in the plates at 37° C. in a CO2 incubator overnight. On day 1, compounds (10 mM stock in DMSO) are added with the ECHO acoustic liquid handler system (Beckman Coulter), including DMSO controls. Plates are incubated for 120 h, and cell viability is measured using CellTiter-Glo luminescent cell viability reagent (Promega product code G7570). Viability (stated as percent of control) is defined as relative luminescence units RLU of each well divided by the RLU of cells in DMSO controls. IC50 values are determined from viability measurements by non-linear regression using a four parameter model.

SAS cells = assay: SAS CTG proliferation assay (120 h) (HNSCC, wt amplified); type: cell-based
Experimental: SAS CTG Proliferation Assay (120 h) (HNSCC, Wt Amplified)
(§1) SAS cells (JCRB0260) are dispensed into 384-well plates, flat and clear bottom (Greiner, PNr. 781091) at a density of 300 cells per well in 60 μL DMEM:F12 (Gibco 31330-038)+10% Fetal Calf Serum (HyClone, PNr.: SH30084.03) and incubated at 37° C. in a CO2 incubator overnight. The next day, compounds (10 mM stock in DMSO) are added with the ECHO acoustic liquid handler system (Beckman Coulter), including DMSO controls. Plates are incubated for 120 h, and cell viability is measured using CellTiter-Glo luminescent cell viability reagent (Promega product code G7570). Viability (stated as percent of control) is defined as relative luminescence units RLU of each well divided by the RLU of cells in DMSO controls. IC50 values are determined from viability measurements by non-linear regression using a four-parameter model.

SK-CO-1 cells = assay: SK-CO-1 CTG proliferation assay (120 h) (CRC, G12V); type: cell-based; details: Homo sapiens; SK-CO-1 cells (CRC, G12V), CTG 120 h
Experimental: SK-CO-1 CTG Proliferation Assay (120 h) (CRC, G12V)
as §1, with “SK-CO-1 cells (ATCC” for “SAS cells (JCRB0260)”, “SK-CO-1 cells (ATCC HTB-39) are dispensed” for “SAS cells (JCRB0260) are dispensed”, “density of 500 cells per” for “density of 300 cells per”, “60 μL EMEM (Sigma M5650)+10% Fetal Calf” for “60 μL DMEM:F12 (Gibco 31330-038)+10% Fetal Calf”

[1] = Solubility measurement (DMSO solution method), McIlvaine buffer pH 4.5 or 6.8; type: physicochemical; details: aqueous buffer, kinetic from dmso stock, DMSO stock diluted to 250 μM, 24 h shaking at ambient temperature
Experimental: The DMSO solution is diluted with an aqueous medium (Mcllvaine buffer with pH=4.5 or 6.8) to a final concentration of 250 μM. After 24 h of shaking at ambient temperature a potentially formed precipitate is removed by filtration. The concentration of the test compound in the filtrate is determined by LC-UV methods by calibrating the signal to the signal of a reference solution with complete dissolution of the test compound in acetonitrile/water (1:1) with known concentration.

NCI-H358 cells = assay: NCI-H358 CTG proliferation assay (120 h) (NSCLC, G12C); type: cell-based, human; details: Homo sapiens
Experimental: NCI-H358 CTG Proliferation Assay (120 h) (NSCLC, G12C)
NCI-H358 cells (ATCC No. CRL-5807) are dispensed into white bottom opaque 96 well plates (Perkin Elmer cat no. 5680) at a density of 2000 cells per well in 100 μL RPMI-1640 ATCC-Formulation (Gibco #A10491)+10% FCS (fetal calf serum) (assay 1) or into black 384-well plates, flat and clear bottom (Greiner, PNr. 781091) at a density of 200 cells per well in 60 μl RPMI-1640 ATCC-Formulation (Gibco #A10491)+10% FCS (fetal calf serum) (assay 2). […] Compounds (10 mM stock in DMSO) are added at logarithmic dose series using the HP Digital Dispenser D300 (Tecan) (assay 1) or the ECHO acoustic liquid handler system (Beckman Coulter) (assay 2), normalizing for added DMSO and including DMSO controls. For the TO time point measurement, untreated cells are analyzed at the time of compound addition. Plates are incubated for 120 h, and cell viability is measured using CellTiter-Glo luminescent cell viability reagent (Promega product code G7570). Viability (stated as percent of control) is defined as relative luminescence units RLU of each well divided by the RLU of cells in DMSO controls. IC50 values are determined from viability measurements by non-linear regression using a four parameter model.

[2] = McIlvaine buffer pH 4.5, read-out: solubility pH 4.5
[3] = McIlvaine buffer pH 6.8, read-out: solubility pH 6.8
[4] = assay 2, CTG, read-out: H358 (assay 2) IC50
[5] = assay 1, CTG, read-out: H358 (assay 1) IC50

Compound	IC50 (NCI-H2122 cells) [nM]	IC50 (SAS cells) [nM]	IC50 (SK-CO-1 cells) [nM]	solubility at 24 h [1, 2] [µg/mL]	solubility at 24 h [1, 3] [µg/mL]	IC50 (NCI-H358 cells; [4]) [nM]	IC50 (NCI-H358 cells; [5]) [nM]
C[C@H]1CN(C)CCCN1c1cc(N2CCN(C)CC2)nc(-c2onc3c2CCC[C@@]32CCCc3sc(N)c(C#N)c32)n1 [I-7]	3460	472	1490	> 139	> 133	–	–
C[C@H](Oc1cc(N2CCN3CCC3C2)nc(-c2onc3c2CCC[C@@]32CCCc3sc(N)c(C#N)c32)n1)[C@@H]1CCCN1C (stereo partly shown) [I-9]	3340	20200	10800	> 149	> 147	1310	–
C[C@H](Oc1cc(N2CCNC[C@@]23CCOC3)nc(-c2noc3c2CCC[C@@]32CCCc3sc(N)c(C#N)c32)n1)[C@@H]1CCCN1C [II-51]	2560	70	772	> 138	> 133	3360	–
C[C@H](Oc1cc(N2CCOC3(CC3)C2)nc(-c2noc3c2CCC[C@@]32CCCc3sc(N)c(C#N)c32)n1)[C@@H]1CCCN1C [II-61]	2340	169	192	111 (≈ 184 µM)	41 (≈ 68.1 µM)	1420	–
C[C@H](Oc1cc(N2CCNC2=O)nc(-c2noc3c2CCC[C@@]32CCCc3sc(N)c(C#N)c32)n1)[C@@H]1CCCN1C [II-64]	6360	16	24	40 (≈ 69.6 µM)	8 (≈ 13.9 µM)	–	36
C[C@H](Oc1cc(-n2cnc3cccnc32)nc(-c2noc3c2CCC[C@@]32CCCc3sc(N)c(C#N)c32)n1)[C@@H]1CCCN1C [II-65]	2550	173	360	7 (≈ 11.5 µM)	< 1	3220	–
C[C@H](Oc1cc(N2CCCC3(COC3)C2)nc(-c2noc3c2CCC[C@@]32CCCc3sc(N)c(C#N)c32)n1)[C@@H]1CCCN1C [II-72]	2250	206	71	> 146	89 (≈ 145 µM)	9	–
C[C@H](Oc1cc(N2CCOC3(COC3)C2)nc(-c2noc3c2CCC[C@@]32CCCc3sc(N)c(C#N)c32)n1)[C@@H]1CCCN1C [II-77]	1780	152	40	> 143	> 134	9	51
Cc1nccn1-c1cc(O[C@@H](C)[C@@H]2CCCN2C)nc(-c2noc3c2CCC[C@@]32CCCc3sc(N)c(C#N)c32)n1 [II-79]	1270	2590	188	> 154	102 (≈ 179 µM)	–	–
C[C@H](Oc1cc(-c2cncs2)nc(-c2noc3c2CCC[C@@]32CCCc3sc(N)c(C#N)c32)n1)[C@@H]1CCCN1C [II-80]	1670	> 25000	148	–	–	–	–
C[C@H](Oc1cc(-c2ccn(C3COC3)n2)nc(-c2noc3c2CCC[C@@]32CCCc3sc(N)c(C#N)c32)n1)[C@@H]1C[C@H](F)CN1C [II-83]	3820	18	447	< 1	< 1	–	–
C[C@H](Oc1cc(-c2ccn(-c3ccsc3)n2)nc(-c2noc3c2CCC[C@@]32CCCc3sc(N)c(C#N)c32)n1)[C@@H]1CCCN1C [II-84]	583	52	116	< 1	< 1	> 25000	–
C[C@H](Oc1cc(N2CCc3cccnc32)nc(-c2noc3c2CCC[C@@]32CCCc3sc(N)c(C#N)c32)n1)[C@@H]1CCCN1C [II-90]	1860	4390	451	–	–	3250	–
C[C@H](Oc1cc(-n2cccc3cnnc2-3)nc(-c2noc3c2CCC[C@@]32CCCc3sc(N)c(C#N)c32)n1)[C@@H]1CCCN1C [II-92]	1810	275	279	–	–	3400	–
C[C@H](Oc1cc(-n2ccnc2Cl)nc(-c2noc3c2CCC[C@@]32CCCc3sc(N)c(C#N)c32)n1)[C@@H]1CCCN1C [II-93]	1560	366	140	97 (≈ 164 µM)	20 (≈ 33.8 µM)	872	–
C[C@H](Oc1cc(-c2cn(C3COC3)nn2)nc(-c2noc3c2CCC[C@@]32CCCc3sc(N)c(C#N)c32)n1)[C@@H]1CCCN1C [II-100]	2140	3180	257	120 (≈ 196 µM)	57 (≈ 92.9 µM)	–	–
C[C@H](Oc1cc(-c2ccc(N)nc2)nc(-c2noc3c2CCC[C@@]32CCCc3sc(N)c(C#N)c32)n1)[C@@H]1CCCN1C [II-101]	1520	130	257	88 (≈ 151 µM)	2 (≈ 3.43 µM)	195	–
C[C@H](Oc1cc(-n2ccc(C#N)n2)nc(-c2noc3c2CCC[C@@]32CCCc3sc(N)c(C#N)c32)n1)[C@@H]1CCCN1C [II-102]	84	71	37	24 (≈ 41.3 µM)	< 1	–	–
C[C@H](Oc1cc(-n2cc(Cn3ccnc3)nn2)nc(-c2noc3c2CCC[C@@]32CCCc3sc(N)c(C#N)c32)n1)[C@@H]1CCCN1C [II-113]	661	381	64	> 173	107 (≈ 168 µM)	128	–
C[C@H](Oc1cc(-n2ccncc2=O)nc(-c2noc3c2CCC[C@@]32CCCc3sc(N)c(C#N)c32)n1)[C@@H]1CCCN1C [II-116]	1120	2010	64	–	–	–	–
C[C@H](Oc1cc(-n2cc(Cn3cncn3)nn2)nc(-c2noc3c2CCC[C@@]32CCCc3sc(N)c(C#N)c32)n1)[C@@H]1CCCN1C [II-124]	901	68	38	> 148	108 (≈ 169 µM)	114	–
